Measurements: patent US10966426B2, “Herbicidal compositions comprising phenylpyrimidines” (BASF SE, priority 2016, dated 2021)

Columns and labels:
Assay type in all cases: in vivo
Polygonum convolvulus = experiment: greenhouse pre-emergence treatment, POLCO; settings: Fallopia convolvulus, 480 h, 20 DAT, POLCO
Summary of the method: (§1)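 Pre-emergence spray of compounds, alone or as combinations formulated as 10% emulsion concentrate in water, directly after sowing in loamy sand (~3.0% humus); pots hooded until rooting, kept at 10-25° C or 20-35° C per species for 2 to 4 weeks. Damage scored 0-100 (100 = no emergence/complete destruction); Colby expected value E=X+Y−(X·Y/100).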

Matricaria chamomilla = experiment: greenhouse post-emergence treatment, MATCH; settings: Matricaria chamomilla, 480 h, 20 DAT, MATCH
Summary of the method: (§2)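 Visual herbicidal effect (0–100) recorded over a 2 to 4 week test period after foliar treatment at plant heights of 3 to 15 cm. Expected combination effects derived by the Colby formula from single-component effects X and Y.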

Galium aparine [1] = experiment: greenhouse post-emergence treatment, GALAP; settings: Galium aparine, 480 h, 20 DAT, GALAP
Summary of the method: as §2

Avena fatua [2] = experiment: greenhouse pre-emergence treatment, AVEFA; settings: Avena fatua, 480 h, 20 DAT, AVEFA, metribuzin WG 70% solo 31.25 gai/ha
Summary of the method: as §1

Papaver rhoeas = experiment: greenhouse pre-emergence treatment, PAPRH; settings: 20 DAT
Excerpt: The culture containers used were plastic pots containing loamy sand with approximately 3.0% of humus as substrate. The seeds of the test plants were sown separately for each species.
For the pre-emergence treatment, the active compounds, suspended or emulsified in water, were applied directly after sowing by means of finely distributing nozzles. The containers were irrigated gently to promote germination and growth and subsequently covered with transparent plastic hoods until the plants had rooted. This cover caused uniform germination of the test plants unless this was adversely affected by the active compounds.
Depending on the species, the plants were kept at 10-25° C. and 20-35° C., respectively.
The test period extended over 2 to 4 weeks. During this time, the plants were tended and their response to the individual treatments was evaluated.
Evaluation was carried out using a scale from 0 to 100. 100 means no emergence of the plants, or complete destruction of at least the above-ground parts, and 0 means no damage or normal course of growth. A good herbicidal activity is given at values of at least 70, and very good herbicidal activity is given at values of at least 85.
The respective stated components A and B, and if appropriate, C were formulated as a 10% by weight strength emulsion concentrate and, with addition of the amount of solvent system, introduced into the spray liquor used for applying the active compound. In the examples, the solvent used was water.
In the examples below, using the method of S. R. Colby (1967) “Calculating synergistic and antagonistic responses of herbicide combinations”, Weeds 15, p. 22ff., the value E, which is expected if the activity of the individual active compounds is only additive, was calculated. E=X+Y−(X·Y/100) where X=effect in percent using herbicide A at an application rate a; • Y=effect in percent using herbicide B at application rate b; • E=expected effect (in %) of herbicide A+herbicide B at application rates a+b.

Galium aparine [3] = experiment: greenhouse pre-emergence treatment, GALAP; settings: Galium aparine, 480 h, 20 DAT, GALAP
Summary of the method: as §1

Apera spica-venti [4] = experiment: greenhouse pre-emergence treatment, APESV; settings: solo, WG 70%, 20 DAT
Summary of the method: as §1

Brachiaria decumbens = experiment: greenhouse pre-emergence treatment, BRADC; settings: Urochloa decumbens, 480 h, solo, WG 70%, BRADC, 62.5 gai/ha, 20 DAT
Summary of the method: as §1

Helianthus annuus = experiment: greenhouse pre-emergence treatment, HELAN; settings: Helianthus annuus, 480 h, 20 DAT, HELAN
Summary of the method: as §1

Avena fatua [5] = experiment: greenhouse post-emergence treatment, AVEFA; settings: Avena fatua, 480 h, 20 DAT, AVEFA
Summary of the method: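 Scoring ran on a 0-100 scale, 100 meaning no emergence or destroyed above-ground parts, over a 2-4 week period; Colby formula E=X+Y−(X·Y/100) gave expected mixture effects. Species grew separately in loamy sand (about 3.0% humus) at 10-25° C or 20-35° C, with water as solvent.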

Apera spica-venti [6] = experiment: greenhouse post-emergence treatment, APESV; settings: 20 DAT, APESV; for % activity: solo, WG 70%
Summary of the method: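 Seeds sown per species in pots of loamy sand; seedlings either grown in place or transplanted days before treatment. Post-emergence spray of water-based liquor at 3–15 cm height. Injury rated 0–100 over 2 to 4 weeks.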

[7] = metribuzin WG 70% solo 125 gai/ha, read-out: % activity
[8] = metribuzin WG 70% solo 17.5 gai/ha
[9] = metribuzin WG 70% solo 35 gai/ha
[10] = metribuzin WG 70% solo 70 gai/ha
[11] = metribuzin WG 70% solo 250 gai/ha

CSc1nnc(C(C)(C)C)c(=O)n1N [metribuzin]
inhibition at 62.5 g/ha (Polygonum convolvulus; metribuzin WG 70% solo 62.5 gai/ha, read-out: % activity): 0%
inhibition at 125 g/ha (Polygonum convolvulus; [7]): 0%
inhibition at 250 g/ha (Polygonum convolvulus; metribuzin WG 70% solo 250 gai/ha, read-out: % activity): 0%
pest or weed control at 62.5 g/ha (Polygonum convolvulus; solo, WG 70%, 62.5 gai/ha): 0%
pest or weed control at 125 g/ha (Polygonum convolvulus; solo, WG 70%, 125 gai/ha): 0%
inhibition at 17.5 g/ha (Matricaria chamomilla; [8]): 0%
inhibition at 35 g/ha (Matricaria chamomilla; [9]): 25%
pest or weed control at 17.5 g/ha (Matricaria chamomilla; solo, WG 70%, 17.5 gai/ha): 0%
pest or weed control at 35 g/ha (Matricaria chamomilla; solo, WG 70%, 35 gai/ha): 25%
inhibition at 17.5 g/ha (Galium aparine [1]; [8]): 0%
inhibition at 35 g/ha (Galium aparine [1]; [9]): 0%
inhibition at 70 g/ha (Galium aparine [1]; [10]): 0%
inhibition at 140 g/ha (Galium aparine [1]; metribuzin WG 70% solo 140 gai/ha): 0%
pest or weed control at 35 g/ha (Galium aparine [1]; solo, WG 70%, 35 gai/ha): 0%
pest or weed control at 70 g/ha (Galium aparine [1]; solo, WG 70%, 70 gai/ha): 0%
pest or weed control at 140 g/ha (Galium aparine [1]; solo, WG 70%, 140 gai/ha): 0%
inhibition at 31.25 g/ha (Avena fatua [2]): 30%
inhibition at 31.25 g/ha (Papaver rhoeas; Papaver rhoeas, 480 h, metribuzin WG 70% solo 31.25 gai/ha): 80%
inhibition at 125 g/ha (Papaver rhoeas; Papaver rhoeas, 480 h, metribuzin WG 70% solo 125 gai/ha): 98%
% activity (Papaver rhoeas; solo, WG 70%, 31.25 gai/ha): 80%
% herbicidal activity (weed control, 0-100 scale) at 250 g/ha (Galium aparine [3]; [11]): 0%
pest or weed control at 250 g/ha (Galium aparine [3]; solo, WG 70%, 250 gai/ha): 0%
% activity (Apera spica-venti [4]; 31.25 gai/ha): 30%
% activity (Apera spica-venti [4]; 62.5 gai/ha): 50%
pest or weed control at 62.5 g/ha (Brachiaria decumbens): 0%
inhibition at 62.5 g/ha (Helianthus annuus; metribuzin WG 70% solo 62.5 gai/ha): 0%
inhibition at 125 g/ha (Helianthus annuus; [7]): 0%
inhibition at 250 g/ha (Helianthus annuus; [11]): 50%
plant injury at 31.25 g/ha (Helianthus annuus; solo, WG 70%, 31.25 gai/ha): 0%
plant injury at 62.5 g/ha (Helianthus annuus; solo, WG 70%, 62.5 gai/ha): 0%
plant injury at 250 g/ha (Helianthus annuus; solo, WG 70%, 250 gai/ha): 50%
inhibition at 17.5 g/ha (Avena fatua [5]; [8]): 5%
inhibition at 35 g/ha (Avena fatua [5]; [9]): 10%
inhibition at 70 g/ha (Avena fatua [5]; [10]): 40%
pest or weed control at 17.5 g/ha (Avena fatua [5]; solo, WG 70%, 17.5 gai/ha): 5%
pest or weed control at 35 g/ha (Avena fatua [5]; solo, WG 70%, 35 gai/ha): 10%
pest or weed control at 70 g/ha (Avena fatua [5]; solo, WG 70%, 70 gai/ha): 40%
inhibition at 17.5 g/ha (Apera spica-venti [6]; Apera spica-venti, 480 h, metribuzin WG 70% solo 17.5 gai/ha): 10%
inhibition at 35 g/ha (Apera spica-venti [6]; Apera spica-venti, 480 h, metribuzin WG 70% solo 35 gai/ha): 55%
% activity (Apera spica-venti [6]; 17.5 gai/ha): 10%
% activity (Apera spica-venti [6]; 35 gai/ha): 55%
% activity (Apera spica-venti [6]; 70 gai/ha): 90%
